According to patent US20220306695A1, “COMPSTATIN ANALOGUES AND THEIR MEDICAL USES” (priority 2019, published 2022):
Starred links: 1 amine or outer side, 2 acyl side, 3 side chain; linkers in the order of their positions; H or OH if unused. Positions of bridges follow the written chain, without caps; N, C: chain ends. Non-standard residues stand in square brackets, D forms with d. Residues, ends and D or L forms follow the SMILES beside them. Groups on a side chain read outwards from the residue. *: point of attachment. Trp(1-Me) = Cn1cc(C[C@H](N)C(=O)O)c2ccccc21; Abu(4-yl) = O=C([C@H](CC[*:3])N[*:1])[*:2]; C18 diacid = O=C(O)CCCCCCCCCCCCCCCCC(=O)*; γGlu = O=C(O)[C@H](CCC(=O)[*:2])N[*:1]; 2Nal = N[C@@H](Cc1ccc2ccccc2c1)C(=O)O; AEEA = NCCOCCOCC(=O)O; Sar = CNCC(=O)O

These molecules were tested on classical complement pathway (assay: In vitro haemolysis assay (inhibition of classical complement pathway)). Conditions: Table 3; human serum, sensitized sheep red blood cells; read-out: IC50[nM], in vitro analysis of inhibition of hemolysis.
Format: cell-based, human
How it was run: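 Serially diluted compound (9 points) was preincubated 15 min at room temperature with diluted human serum, titrated per batch to give 70-90% maximal haemolysis, in Tris/casein buffer pH 7.4 with Mg2+/Ca2+. Antibody-sensitized sheep erythrocytes were then added for 30 min at 37° C, and the reaction was stopped with EDTA. Haemolysis was read at A405, with IC50 from 4PL fit.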

Compound	IC50
CC[C@H](C)[C@H](NC(=O)[C@H](C)NC(=O)[C@H](CO)NC(=O)CNC(=O)[C@H](CCC(=O)O)NC(C)=O)C(=O)N[C@H]1CSSC[C@@H](C(=O)N[C@H](C(N)=O)[C@@H](C)O)NC(=O)[C@H](CCCNC(=N)N)NC(=O)[C@H](Cc2c[nH]cn2)NC(=O)[C@H](CCC(=O)O)NC(=O)CNC(=O)[C@H](Cc2c[nH]c3ccccc23)NC(=O)[C@H](CC(=O)O)NC(=O)[C@H](CCC(N)=O)NC(=O)[C@H](Cc2c[nH]c3ccccc23)NC(=O)[C@H]([C@@H](C)CC)NC1=O [Compound 29] (Ac-EGSAICIWQDWGEHRCT-NH2; disulfide 6-16)	< 100 nM
CC[C@H](C)[C@@H]1NC(=O)[C@@H](NC(=O)[C@H](Cc2ccccc2)NC(=O)[C@H](CCC(=O)O)NC(=O)[C@H](CO)NC(C)=O)CSCC[C@@H](C(=O)N[C@H](C(=O)N[C@@H](CCC(=O)O)C(=O)NCC(=O)N[C@@H](CCC(=O)O)C(=O)NCCOCCOCC(=O)N[C@@H](CCC(=O)O)C(=O)N[C@@H](CO)C(=O)N[C@@H](CCCCNC(=O)CC[C@H](NC(=O)CCCCCCCCCCCCCCCCC(=O)O)C(=O)O)C(=O)O)[C@@H](C)O)NC(=O)[C@H](CCCNC(=N)N)NC(=O)[C@H](Cc2c[nH]cn2)NC(=O)[C@H](CCC(=O)O)NC(=O)CNC(=O)[C@H](Cc2c[nH]c3ccccc23)NC(=O)[C@H](CC(=O)O)NC(=O)[C@H](CCC(N)=O)NC(=O)[C@H](Cc2cn(C)c3ccccc23)NC1=O [Compound 163, Ac-SEFA(1)I[1-Me-Trp]QDWGEHRhC(1)TEGE[Peg3]ES-K([17-carboxy-heptadecanoyl][γGlu])-OH] (Ac-SEFCI[Trp(1-Me)]QDWGEHR[Abu(4-yl)]TEGE[AEEA]ESK([γGlu-C18 diacid])-OH; thioether 4-14)	< 100 nM
CC[C@H](C)[C@@H]1NC(=O)[C@@H](NC(=O)[C@H](Cc2ccccc2)NC(=O)[C@H](CCC(=O)O)NC(=O)[C@H](CO)NC(C)=O)CSSC[C@@H](C(=O)N[C@@H](CO)C(=O)N[C@@H](CCC(=O)O)C(=O)N[C@@H](C)C(N)=O)NC(=O)[C@H](CCCNC(=N)N)NC(=O)[C@H](Cc2c[nH]cn2)NC(=O)[C@H](CCC(=O)O)NC(=O)CNC(=O)[C@H](Cc2c[nH]c3ccccc23)NC(=O)[C@H](CC(=O)O)NC(=O)[C@H](CCC(N)=O)NC(=O)[C@H](Cc2cn(C)c3ccccc23)NC1=O [Compound 84] (Ac-SEFCI[Trp(1-Me)]QDWGEHRCSEA-NH2; disulfide 4-14)	< 100 nM
CC[C@H](C)[C@@H]1NC(=O)[C@@H](NC(=O)[C@H](Cc2ccccc2)NC(=O)[C@H](CCC(=O)O)NC(=O)[C@H](CO)NC(C)=O)CSSC[C@@H](C(=O)N(C)CC(=O)N[C@@H](CCC(=O)O)C(=O)NCC(=O)N[C@@H](CCC(=O)O)C(=O)NCCOCCOCC(=O)N[C@@H](CCCCNC(=O)CC[C@H](NC(=O)CNC(=O)CC[C@H](NC(=O)CCCCCCCCCCCCCCCCC(=O)O)C(=O)O)C(=O)O)C(N)=O)NC(=O)[C@H](CCCNC(=N)N)NC(=O)[C@H](Cc2c[nH]cn2)NC(=O)[C@H](CCC(=O)O)NC(=O)CNC(=O)[C@H](Cc2c[nH]c3ccccc23)NC(=O)[C@H](CC(=O)O)NC(=O)[C@H](CCC(N)=O)NC(=O)[C@H](Cc2cn(C)c3ccccc23)NC1=O [Compound 138] (Ac-SEFCI[Trp(1-Me)]QDWGEHRC[Sar]EGE[AEEA]K([γGlu-Gly-γGlu-C18 diacid])-NH2; disulfide 4-14)	< 100 nM
CC[C@H](C)[C@@H]1NC(=O)[C@@H](NC(=O)[C@H](Cc2ccccc2)NC(C)=O)CSSC[C@@H](C(=O)N[C@H](C(=O)NCC(=O)N[C@@H](C)C(=O)N[C@@H](CCC(=O)O)C(=O)N[C@@H](CO)C(N)=O)[C@@H](C)O)NC(=O)[C@H](CCCNC(=N)N)NC(=O)[C@H](Cc2c[nH]cn2)NC(=O)[C@H](CCC(=O)O)NC(=O)CNC(=O)[C@H](Cc2c[nH]c3ccccc23)NC(=O)[C@H](CC(=O)O)NC(=O)[C@H](CCC(N)=O)NC(=O)[C@H](Cc2ccc3ccccc3c2)NC1=O [Compound 64] (Ac-FCI[2Nal]QDWGEHRCTGAES-NH2; disulfide 2-12)	< 100 nM
CC[C@H](C)[C@H](NC(C)=O)C(=O)N[C@H]1CSSC[C@@H](C(=O)N[C@H](C(N)=O)[C@@H](C)O)NC(=O)[C@H](CCCNC(=N)N)NC(=O)[C@H](Cc2c[nH]cn2)NC(=O)[C@H](CO)NC(=O)CNC(=O)[C@H](Cc2c[nH]c3ccccc23)NC(=O)[C@H](CC(=O)O)NC(=O)[C@H](CCC(N)=O)NC(=O)[C@H](Cc2c[nH]c3ccccc23)NC(=O)[C@H]([C@@H](C)CC)NC1=O [Compound 6] (Ac-ICIWQDWGSHRCT-NH2; disulfide 2-12)	< 250 nM
CC[C@H](C)[C@@H]1NC(=O)[C@@H](NC(=O)[C@H](Cc2ccccc2)NC(=O)[C@H](CCC(=O)O)NC(=O)[C@H](CO)NC(C)=O)CCSC[C@@H](C(=O)N(C)CC(=O)N[C@@H](CCC(=O)O)C(=O)NCC(=O)N[C@@H](CCC(=O)O)C(=O)NCCOCCOCC(=O)NCCOCCOCC(=O)N[C@@H](CCCCNC(=O)CC[C@H](NC(=O)CNC(=O)CC[C@H](NC(=O)CCCCCCCCCCCCCCCCC(=O)O)C(=O)O)C(=O)O)C(N)=O)NC(=O)[C@H](CCCNC(=N)N)NC(=O)[C@H](Cc2c[nH]cn2)NC(=O)[C@H](CCC(=O)O)NC(=O)CNC(=O)[C@H](Cc2c[nH]c3ccccc23)NC(=O)[C@H](CCC(=O)O)NC(=O)[C@H](CCC(N)=O)NC(=O)[C@H](Cc2cn(C)c3ccccc23)NC1=O [Compound 167] (Ac-SEF[Abu(4-yl)]I[Trp(1-Me)]QEWGEHRC[Sar]EGE[AEEA][AEEA]K([γGlu-Gly-γGlu-C18 diacid])-NH2; thioether 4-14)	< 500 nM
CC[C@H](C)[C@@H]1NC(=O)[C@@H](NC(=O)[C@H](Cc2ccc(O)cc2)NC(=O)[C@H](C)NC(=O)[C@H](CO)NC(=O)CNC(=O)[C@H](CCC(=O)O)NC(C)=O)CSSC[C@@H](C(=O)N(C)CC(=O)N[C@@H](CCC(=O)O)C(N)=O)NC(=O)[C@H](CCCNC(=N)N)NC(=O)[C@H](Cc2c[nH]cn2)NC(=O)[C@H](CCC(=O)O)NC(=O)CNC(=O)[C@H](Cc2c[nH]c3ccccc23)NC(=O)[C@H](CCC(=O)O)NC(=O)[C@H](CCC(N)=O)NC(=O)[C@H](Cc2cn(C)c3ccccc23)NC1=O [Compound 70] (Ac-EGSAYCI[Trp(1-Me)]QEWGEHRC[Sar]E-NH2; disulfide 6-16)	< 100 nM
CC[C@H](C)[C@@H]1NC(=O)[C@@H](NC(=O)[C@H](Cc2ccc(O)cc2)NC(=O)[C@H](CCC(=O)O)NC(=O)[C@H](CO)NC(C)=O)CSSC[C@@H](C(=O)N(C)CC(=O)N[C@@H](CCC(=O)O)C(=O)NCC(=O)N[C@@H](CCC(=O)O)C(=O)NCCOCCOCC(=O)NCCOCCOCC(=O)N[C@@H](CCCCNC(=O)CC[C@H](NC(=O)CNC(=O)CC[C@H](NC(=O)CCCCCCCCCCCCCCCCC(=O)O)C(=O)O)C(=O)O)C(N)=O)NC(=O)[C@H](CCCNC(=N)N)NC(=O)[C@H](Cc2c[nH]cn2)NC(=O)[C@H](CCC(=O)O)NC(=O)CNC(=O)[C@H](Cc2c[nH]c3ccccc23)NC(=O)[C@H](CCC(=O)O)NC(=O)[C@H](CCC(N)=O)NC(=O)[C@H](Cc2cn(C)c3ccccc23)NC1=O [Compound 125] (Ac-SEYCI[Trp(1-Me)]QEWGEHRC[Sar]EGE[AEEA][AEEA]K([γGlu-Gly-γGlu-C18 diacid])-NH2; disulfide 4-14)	< 500 nM

Same assay, conditions: Table 4; valine 3 versus isoleucine 3 pairs; read-out: CP hemolysis IC50

Compound	IC50
CC[C@H](C)[C@H](NC(C)=O)C(=O)N[C@H]1CSSC[C@@H](C(=O)N[C@H](C(=O)N[C@@H](CCC(=O)O)C(=O)NCC(=O)N[C@@H](CCC(=O)O)C(N)=O)[C@@H](C)O)NC(=O)[C@H](CCCNC(=N)N)NC(=O)[C@H](Cc2c[nH]cn2)NC(=O)[C@H](CCC(=O)O)NC(=O)CNC(=O)[C@H](Cc2c[nH]c3ccccc23)NC(=O)[C@H](CC(=O)O)NC(=O)[C@H](CCC(N)=O)NC(=O)[C@H](Cc2c[nH]c3ccccc23)NC(=O)[C@H](C(C)C)NC1=O [J, reference compound] (Ac-ICVWQDWGEHRCTEGE-NH2; disulfide 2-12)	240 nM
CC[C@H](C)[C@H](NC(C)=O)C(=O)N[C@H]1CSSC[C@@H](C(=O)N[C@H](C(N)=O)[C@@H](C)O)NC(=O)[C@H](CCCNC(=N)N)NC(=O)[C@H](Cc2c[nH]cn2)NC(=O)[C@H](CO)NC(=O)CNC(=O)[C@H](Cc2c[nH]c3ccccc23)NC(=O)[C@H](CC(=O)O)NC(=O)[C@H](CCC(N)=O)NC(=O)[C@H](Cc2c[nH]c3ccccc23)NC(=O)[C@H]([C@@H](C)CC)NC1=O [Compound 6] (Ac-ICIWQDWGSHRCT-NH2; disulfide 2-12)	140 nM
CC[C@H](C)[C@H](NC(C)=O)C(=O)N[C@H]1CSSC[C@@H](C(=O)N[C@H](C(=O)NCC(=O)N[C@@H](C)C(=O)N[C@@H](CCC(=O)O)C(=O)N[C@@H](CO)C(N)=O)[C@@H](C)O)NC(=O)[C@H](CCCNC(=N)N)NC(=O)[C@H](Cc2c[nH]cn2)NC(=O)[C@H](CCC(=O)O)NC(=O)CNC(=O)[C@H](Cc2c[nH]c3ccccc23)NC(=O)[C@H](CC(=O)O)NC(=O)[C@H](CCC(N)=O)NC(=O)[C@H](Cc2c[nH]c3ccccc23)NC(=O)[C@H](C(C)C)NC1=O [D, reference compound] (Ac-ICVWQDWGEHRCTGAES-NH2; disulfide 2-12)	210 nM
CC[C@H](C)[C@H](NC(=O)[C@H](C)NC(=O)[C@H](CO)NC(=O)[C@H](CO)NC(=O)[C@H](CCC(=O)O)NC(C)=O)C(=O)N[C@H]1CSSC[C@@H](C(=O)N[C@H](C(N)=O)[C@@H](C)O)NC(=O)[C@H](CCCNC(=N)N)NC(=O)[C@H](Cc2c[nH]cn2)NC(=O)[C@H](CCC(=O)O)NC(=O)CNC(=O)[C@H](Cc2c[nH]c3ccccc23)NC(=O)[C@H](CC(=O)O)NC(=O)[C@H](CCC(N)=O)NC(=O)[C@H](Cc2c[nH]c3ccccc23)NC(=O)[C@H](C(C)C)NC1=O [C, reference compound] (Ac-ESSAICVWQDWGEHRCT-NH2; disulfide 6-16)	300 nM
CC[C@H](C)[C@H](NC(C)=O)C(=O)N[C@H]1CSSC[C@@H](C(=O)N[C@H](C(N)=O)[C@@H](C)O)NC(=O)[C@H](CCCNC(=N)N)NC(=O)[C@H](Cc2c[nH]cn2)NC(=O)[C@H](CCC(=O)O)NC(=O)CNC(=O)[C@H](Cc2c[nH]c3ccccc23)NC(=O)[C@H](CC(=O)O)NC(=O)[C@H](CCC(N)=O)NC(=O)[C@H](Cc2c[nH]c3ccccc23)NC(=O)[C@H](C(C)C)NC1=O [A, reference compound] (Ac-ICVWQDWGEHRCT-NH2; disulfide 2-12)	350 nM

Same assay, conditions: Table 5; different residues at position 3 of Ac-IC(1)XWQDWGEHRC(1)T-NH2; read-out: IC50, CP hemolysis

Compound	IC50
CC[C@H](C)[C@H](NC(C)=O)C(=O)N[C@H]1CSSC[C@@H](C(=O)N[C@H](C(N)=O)[C@@H](C)O)NC(=O)[C@H](CCCNC(=N)N)NC(=O)[C@H](Cc2c[nH]cn2)NC(=O)[C@H](CCC(=O)O)NC(=O)CNC(=O)[C@H](Cc2c[nH]c3ccccc23)NC(=O)[C@H](CC(=O)O)NC(=O)[C@H](CCC(N)=O)NC(=O)[C@H](Cc2c[nH]c3ccccc23)NC(=O)[C@H](C(C)C)NC1=O [A, reference compound] (Ac-ICVWQDWGEHRCT-NH2; disulfide 2-12)	350 nM
